Experiment [1] concerns the target T1, fructose-1,6-bisphosphatase (LmFBPase) (Leishmania major, UniProt O97193).
T1 sequence (O97193 1-351): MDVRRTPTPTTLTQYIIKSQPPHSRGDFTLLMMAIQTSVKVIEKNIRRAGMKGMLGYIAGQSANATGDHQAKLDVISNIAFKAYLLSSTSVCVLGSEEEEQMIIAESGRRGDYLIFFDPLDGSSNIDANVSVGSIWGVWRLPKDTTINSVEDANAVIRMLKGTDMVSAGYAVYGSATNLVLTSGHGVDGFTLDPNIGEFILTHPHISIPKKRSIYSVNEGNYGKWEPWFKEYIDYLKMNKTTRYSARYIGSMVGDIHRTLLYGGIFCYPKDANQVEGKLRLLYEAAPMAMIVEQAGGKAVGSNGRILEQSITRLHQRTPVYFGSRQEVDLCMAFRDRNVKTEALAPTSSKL
The experiment is described as follows: co-crystal structure ([…] Å) with F6P; coupled enzyme assay Ki. It counts as biochemical. On the set-up: gene FBP; C-terminal His6-tagged LmFBPase, homotetramer.

Experiment [2] addresses T1, fructose-1,6-bisphosphatase (LmFBPase). Set-up: gene FBP.
In experiment [3] the target is T2, fructose-1,6-bisphosphatase (LmFBPase) (Leishmania major, UniProt O97193).
T2 construct: gene FBP; C-terminal His6-tagged LmFBPase
The experiment can be described thus: PGI/G6PDH coupled enzyme activity assay. It counts as biochemical.

Experiment [4] deals with T1, fructose-1,6-bisphosphatase (LmFBPase). The experiment can be described thus: co-crystal structure ([…] Å) with AMP; thermal shift. Format: binding. On the set-up: gene FBP; C-terminal His6-tagged LmFBPase, homotetramer.

The text below walks through data of article PMC5639204, “Structures of Leishmania Fructose-1,6-Bisphosphatase Reveal Species-Specific Differences in the Mechanism of Allosteric Inhibition” (Journal of Molecular Biology, 2017).

Broadly, the Ki is the equilibrium dissociation constant of an inhibitor or competing ligand from its target. Lower therefore signals higher affinity. `Nc1ncnc2c1ncn2[C@@H]1O[C@H](COP(=O)(O)O)[C@@H](O)[C@H]1O` [AMP] displayed an inhibition constant Ki in experiment [1] of 63.8 µM.

As for `O=P(O)(O)O` [phosphate], the “co-crystal structure (2.8 Å) with Mn2+” value in experiment [2] is “a catalytic product Pi and manganese atoms were found in each active site”.

`O=P(O)(O)OC[C@H]1O[C@@](CO)(OP(=O)(O)O)[C@@H](O)[C@@H]1O` [Fructose 2,6-bisphosphate] returned a Ki in experiment [3] of 1.9 µM.

`O=P(O)(O)OC[C@H]1OC(O)(CO)[C@@H](O)[C@@H]1O` (stereo partly shown) [fructose 6-phosphate]: in experiment [4], the “co-crystal structure (2.62 Å) with AMP; thermal shift” value is listed as “The catalytic product F6P was found in each of the active sites of the four subunits”.
